Data reported in US10508109B2 (priority 2015, dated 2019).
Structures can show the parent of a compound that is named as a salt. Where two headings read alike, the source gives them in different places.

Assays:
SUV39H2 = SUV39H2 (Homo sapiens (Human), UniProt Q9H5I1); experiment: biochemical; format: biochemical; conditions: 3H-SAM 100 nM, H3 Histone Peptide 350 nM, room temperature 3 hours
How it was run: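 Scintillation proximity format: reactions were halted with streptavidin SPA beads (50 μg/well final) after 3 h at room temperature with enzyme dosed by lot-specific activity.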

A549 = experiment: Cell-based assay, anti-proliferative activity (Cell Counting Kit-8, 72 hours); conditions: Homo sapiens, read-out: A549 IC50
How it was run: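 Seed cells in 96-well format; add inhibitors; measure growth by CCK-8 at end of exposure; derive IC50.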

[1] = A549 cells, 72 hours exposure, Cell Counting Kit-8

Chain of SUV39H2 (Q9H5I1 whole entry): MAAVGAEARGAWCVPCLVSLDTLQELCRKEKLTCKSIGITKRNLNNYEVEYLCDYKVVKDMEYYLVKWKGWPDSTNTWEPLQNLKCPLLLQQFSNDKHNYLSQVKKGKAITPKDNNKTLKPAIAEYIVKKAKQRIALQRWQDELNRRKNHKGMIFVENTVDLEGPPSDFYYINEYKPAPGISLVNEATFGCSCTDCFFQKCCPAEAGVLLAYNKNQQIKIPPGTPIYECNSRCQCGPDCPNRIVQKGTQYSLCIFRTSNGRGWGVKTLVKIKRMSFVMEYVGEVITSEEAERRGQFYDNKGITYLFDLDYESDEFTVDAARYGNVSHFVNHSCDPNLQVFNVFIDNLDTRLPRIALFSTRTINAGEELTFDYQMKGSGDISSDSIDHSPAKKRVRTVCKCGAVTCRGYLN

SMILES	IC50 (SUV39H2) [nM]	IC50 (A549; [1]) [nM]	IC50 (A549; A549, 72 h) [nM]
COc1cc(OC)c(-c2cn3ccc(N[C@H]4CC[C@H](NCc5cccc(C)c5)CC4)cc3n2)cc1Cl [Example 415, (1r,4r)-N^1-(2-(5-chloro-2,4-dimethoxyphenyl)imidazo[1,2-a]pyridin-7-yl)-N^4-(3-methylbenzyl)cyclohexane-1,4-diamine]	98	620	–
COc1cc(OC)c(-c2cn3ccc(N4CC[C@H](NC(C)C5CCCCC5)C4)cc3n2)cc1Cl (stereo partly drawn) [Example 416, (3S)-1-(2-(5-chloro-2,4-dimethoxyphenyl)imidazo[1,2-a]pyridin-7-yl)-N-(1-cyclohexylethyl)pyrrolidin-3-amine]	47.6	670	–
COc1cc(OC)c(-c2cn3ccc(N4CCN(c5cnc(N6CCCC(N)C6)nc5)CC4)cc3n2)cc1Cl (centres unmarked) [Example 417, 1-(5-(4-(2-(5-chloro-2,4-dimethoxyphenyl)imidazo[1,2-a]pyridin-7-yl)piperazin-1-yl)pyrimidin-2-yl)piperidin-3-amine]	9.91	620	–
COc1cc(OC)c(-c2cn3ccc(N[C@H]4CC[C@@H](NCc5ccc(N(C)C)cc5)CC4)cc3n2)cc1Cl [Example 418, cis-N^1-(2-(5-chloro-2,4-dimethoxyphenyl)imidazo[1,2-a]pyridin-7-yl)-N^4-(4-(dimethylamino)benzyl)cyclohexane-1,4-diamine bis(2,2,2-trifluoroacetate)]	41.3	610	–
COc1cc(OC)c(-c2cn3ccc(N[C@H]4CC[C@H](NCc5ccc(N(C)C)cc5)CC4)cc3n2)cc1Cl [Example 419, (1r,4r)-N^1-(2-(5-chloro-2,4-dimethoxyphenyl)imidazo[1,2-a]pyridin-7-yl)-N^4-(4-(dimethylamino)benzyl)cyclohexane-1,4-diamine]	82	490	–
COc1cc(OC)c(-c2cn3ccc(N[C@H]4CC[C@H](NCc5ccccc5O)CC4)cc3n2)cc1Cl [Example 420, 2-((((1r,4r)-4-((2-(5-chloro-2,4-dimethoxyphenyl)imidazo[1,2-a]pyridin-7-yl)amino)cyclohexyl)amino)methyl)phenol]	64.6	720	–
COc1cc(OC)c(-c2cn3ccc(N4CCN(c5ncc(N)cn5)CC4)cc3n2)cc1Cl [Example 422, 2-(4-(2-(5-chloro-2,4-dimethoxyphenyl)imidazo[1,2-a]pyridin-7-yl)piperazin-1-yl)pyrimidin-5-amine hydrochloride]	11.2	–	720
COc1cc(OC)c(-c2cn3ccc(N[C@H]4CC[C@@H](NCC5CCN(C(=O)OC(C)(C)C)CC5)CC4)cc3n2)cc1Cl [Example 423, tert-butyl 4-(((cis-4-((2-(5-chloro-2,4-dimethoxyphenyl)imidazo[1,2-a]pyridin-7-yl)amino)cyclohexyl)amino)methyl)piperidine-1-carboxylate]	26.9	590	–
CNC1CCN(c2cc(N3CCN(c4ccn5cc(-c6cc(Cl)c(OC)cc6OC)nc5c4)CC3)ncn2)C1 (centres unmarked) [Example 424, 1-(6-(4-(2-(5-chloro-2,4-dimethoxyphenyl)imidazo[1,2-a]pyridin-7-yl)piperazin-1-yl)pyrimidin-4-yl)-N-methylpyrrolidin-3-amine]	11.4	700	–
COc1cc(OC)c(-c2cn3ccc(N4CC[C@H](NC(C)C5CCN(C(=O)OC(C)(C)C)CC5)C4)cc3n2)cc1Cl (stereo partly drawn) [Example 425, tert-butyl 4-(1-(((S)-1-(2-(5-chloro-2,4-dimethoxyphenyl)imidazo[1,2-a]pyridine-7-yl)pyrrolidin-3-yl)amino)ethyl)piperidine-1-carboxylate]	57.9	890	–
CNC1CCN(c2ccnc(N3CCN(c4ccn5cc(-c6cc(Cl)c(OC)cc6OC)nc5c4)CC3)n2)CC1 [Example 426, 1-(2-(4-(2-(5-chloro-2,4-dimethoxyphenyl)imidazo[1,2-a]pyridin-7-yl)piperazin-1-yl)pyrimidin-4-yl)-N-methylpiperidin-4-amine]	17.7	670	–
COc1cc(OC)c(-c2cn3ccc(N4CCN(c5ncc(N6CCOCC6)cn5)CC4)cc3n2)cc1Cl [Example 427, 4-(2-(4-(2-(5-chloro-2,4-dimethoxyphenyl)imidazo[1,2-a]pyridin-7-yl)piperazin-1-yl)pyrimidin-5-yl)morpholine]	25.1	820	–
CNC1CCCN(c2ncc(N3CCN(c4ccn5cc(-c6cc(Cl)c(OC)cc6OC)nc5c4)CC3)cn2)C1 (centres unmarked) [Example 428, 1-(5-(4-(2-(5-chloro-2,4-dimethoxyphenyl)imidazo[1,2-a]pyridin-7-yl)piperazin-1-yl)pyrimidin-2-yl)-N-methylpiperidin-3-amine]	14.3	770	–
COc1cc(OC)c(-c2cn3ccc(N4CCCN(C(C)=O)CC4)cc3n2)cc1Cl [Example 429, 1-(4-(2-(5-chloro-2,4-dimethoxyphenyl)imidazo[1,2-a]pyridin-7-yl)-1,4-diazepan-1-yl)ethanone]	16.1	10000	–
COc1cc(OC)c(-c2cn3ccc(N4CCN(c5ncc(N6CCN(C)CC6)cn5)CC4)cc3n2)cc1Cl [Example 430, 2-(5-chloro-2,4-dimethoxyphenyl)-7-(4-(5-(4-methylpiperazin-1-yl)pyrimidin-2-yl)piperazin-1-yl)imidazo[1,2-a]pyridine]	13.7	950	–
COc1cc(OC)c(-c2cn3ccc(N4CCN(c5nc(N)nc(N6CCCC6)n5)CC4)cc3n2)cc1Cl [Example 431, 4-(4-(2-(5-chloro-2,4-dimethoxyphenyl)imidazo[1,2-a]pyridin-7-yl)piperazin-1-yl)-6-(pyrrolidin-1-yl)-1,3,5-triazin-2-amine]	88.4	760	–
COc1cc(OCCCN(C)C)c(-c2cn3ccc(N4CC[C@H](N)C4)cc3n2)cc1Cl [Example 432, (S)-1-(2-(5-chloro-2-(3-(dimethylamino)propoxy)-4-methoxyphenyl)imidazo[1,2-a]pyridin-7-yl)pyrrolidin-3-amine]	31.8	710	–
COc1cc(OC)c(-c2cn3ccc(N[C@H]4C[C@H]5CC[C@@H](C4)N5Cc4ccccc4)cc3n2)cc1Cl [Example 433, N-((1R,3r,5S)-8-benzyl-8-azabicyclo[3.2.1]octan-3-yl)-2-(5-chloro-2,4-dimethoxyphenyl)imidazo[1,2-a]pyridin-7-amine]	57.6	820	–
COc1cc(OC)c(-c2cn3ccc(N4CCCN(CC5CCCCC5)CC4)cc3n2)cc1Cl [Example 435, 2-(5-chloro-2,4-dimethoxyphenyl)-7-(4-(cyclohexylmethyl)-1,4-diazepan-1-yl)imidazo[1,2-a]pyridine]	6.46	650	–
COc1cc(OC)c(-c2cn3ccc(N4CCN(c5nc(N)nc(N6CCC(N(C)C)C6)n5)CC4)cc3n2)cc1Cl (centres unmarked) [Example 436, 4-(4-(2-(5-chloro-2,4-dimethoxyphenyl)imidazo[1,2-a]pyridin-7-yl)piperazin-1-yl)-6-(3-(dimethylamino)pyrrolidin-1-yl)-1,3,5-triazin-2-amine]	11.7	650	–
COc1cc(OC)c(-c2cn3ccc(N4CCN(c5nccc(N6CCC(N)CC6)n5)CC4)cc3n2)cc1Cl [Example 437, 1-(2-(4-(2-(5-chloro-2,4-dimethoxyphenyl)imidazo[1,2-a]pyridin-7-yl)piperazin-1-yl)pyrimidin-4-yl)piperidin-4-amine]	15.9	740	–
COc1cc(OC)c(-c2cn3cc(Br)c(N4CC[C@H](NCc5ccncc5)C4)cc3n2)cc1Cl [Example 438, (S)-1-(6-bromo-2-(5-chloro-2,4-dimethoxyphenyl)imidazo[1,2-a]pyridin-7-yl)-N-(pyridin-4-ylmethyl)pyrrolidin-3-amine]	23.1	2400	–
COc1cc(OC)c(-c2cn3ccc(N4CCN(c5nc(N)nc(N(C)C)n5)CC4)cc3n2)cc1Cl [Example 440, 6-(4-(2-(5-chloro-2,4-dimethoxyphenyl)imidazo[1,2-a]pyridin-7-yl)piperazin-1-yl)-N^2,N^2-dimethyl-1,3,5-triazine-2,4-diamine]	35.8	620	–
COc1cc(OC)c(-c2cn3ccc(N4CCN(c5ncc(N6CCC(N)CC6)cn5)CC4)cc3n2)cc1Cl [Example 441, 1-(2-(4-(2-(5-chloro-2,4-dimethoxyphenyl)imidazo[1,2-a]pyridin-7-yl)piperazin-1-yl)pyrimidin-5-yl)piperidin-4-amine]	4.99	540	–
COc1cc(OC)c(-c2cn3ccc(N4CCCN(CC5CCCC5)CC4)cc3n2)cc1Cl [Example 442, 2-(5-chloro-2,4-dimethoxyphenyl)-7-(4-(cyclopentylmethyl)-1,4-diazepan-1-yl)imidazo[1,2-a]pyridine]	13.9	730	–
COc1cc(OC)c(-c2cn3ccc(N[C@H]4C[C@H]5CC[C@@H](C4)N5CC4CCCC4)cc3n2)cc1Cl [Example 443, 2-(5-chloro-2,4-dimethoxyphenyl)-N-((1R,3r,5S)-8-(cyclopentylmethyl)-8-azabicyclo[3.2.1]octan-3-yl)imidazo[1,2-a]pyridin-7-amine]	17.3	820	–
COc1cc(OC)c(-c2cn3ccc(N[C@H]4C[C@H]5CC[C@@H](C4)N5C(=O)OC(C)(C)C)cc3n2)cc1Cl [Example 444, (1R,3r,5S)-tert-butyl 3-((2-(5-chloro-2,4-dimethoxyphenyl)imidazo[1,2-a]pyridin-7-yl)amino)-8-azabicyclo[3.2.1]octane-8-carboxylate]	78	780	–
COc1cc(OC)c(-c2cn3cc(-c4ccc(C#N)cc4)c(N4CC[C@H](N)C4)cc3n2)cc1Cl [Example 445, (S)-4-(7-(3-aminopyrrolidin-1-yl)-2-(5-chloro-2,4-dimethoxyphenyl)imidazo[1,2-a]pyridin-6-yl)benzonitrile dihydrochloride]	85.9	–	940
